Reference: publication PMC9785397, “Exploiting Conserved Quorum Sensing Signals in Streptococcus mutans and Streptococcus pneumoniae” (Microorganisms, 2022)
≈ marks a conversion by molar mass, not a printed value.

What was measured:
[1] = tested on: S. mutans bacteriocin production against P. aeruginosa; test: Bacteriocin overlay assay, S. mutans spotted on P. aeruginosa; format: cell-based, Streptococcus mutans; conditions: CSP1 20 μM, microaerophilic, experimental control
Description: (§1) During the formation of complex biofilm such as dental plaque, the ability of S. mutans to compete with other commensal species determines the success of the cariogenesis process. S. mutans uses antibacterial peptides, namely, bacteriocins, to overcome and subvert the composition of dental microbiota. We investigated the production of bacteriocins using the overlay assay. Overnight cultures of S. mitis, S. oralis, S. sanguinis, P. aeruginosa, F. nucleatum, or P. gingivalis were diluted 1:100 in BHI or TS broth and incubated at 37 °C until they reached an OD620 of 0.3. Cultures were added with agar (BD Difco^TM Agar) at the final concentration of 1.5% w/v and transferred in plates. Overnight cultures of S. mutans were diluted 1:100 in BHI and added with peptides (20 μM) or the vehicle with or without CSP1. Culture media were supplemented with agar to reach the final concentration of 0.7% w/v. The solutions were spotted on the surface of agar plates prepared as described above. […]
(§2) Spots (10 for each experimental group) were acquired and analyzed using NIH Image J software (version 1.53t August 2022, https://imagej.nih.gov/ij/index.html; accessed on 7 September 2022). The appearance of a clear area on the plate (bacterial growth inhibition) was evaluated as indicative of bacteriocin activity. The diameters of the area were measured in a blinded fashion.

[2] = tested on: S. mutans bacteriocin production against F. nucleatum; test: Bacteriocin overlay assay, S. mutans spotted on F. nucleatum; format: cell-based, Streptococcus mutans; conditions: CSP1 20 μM, 16 h, 37 °C, anaerobic
Description: as §1, §2

[3] = tested on: P. aeruginosa; test: microbe, parasite or virus in culture; format: cell-based, Pseudomonas aeruginosa; conditions: peptides 0–50 μM, 16 h, 37 °C, aerobic, A620 nm, three separate experiments
Description: (§3) Streptococcus mutans Clarke (strain designation NCTC 10449), Pseudomonas aeruginosa (Schroeter) Migula (strain designation PAO1), Fusobacterium nucleatum, subspecies nucleatum (strain VPI 4355), and Porphyromonas gingivalis (strain 2561) were purchased from ATCC (LGC Standards Srl, Milan, Italy). Streptococcus mitis, Streptococcus oralis, and Streptococcus sanguinis were obtained from clinical isolates and characterized by morphological, biochemical, and molecular typing. S. mutans, S. mitis, S. oralis, and S. sanguinis were maintained in Brain Heart Infusion (BHI) broth or agar under microaerophilic conditions. P. aeruginosa was maintained in trypticase soy (TS) agar or broth. F. nucleatum was maintained in TS agar or broth with defibrinated sheep blood under anaerobic conditions. P. gingivalis was maintained in ATCC Medium 2722 supplemented with TS broth or agar under anaerobic conditions. Before the experiments, bacterial cultures were inoculated in fresh media (dilution 1:100) and grown for 16 h at 37 °C.
(§4) The antimicrobial activities of the tested peptides were assessed through the determination of the minimum inhibitory concentration (MIC) standardized by the Clinical and Laboratory Standards Institute. Bacterial inocula were diluted in 10 mL of MHB […]. The concentration of the bacteria was adjusted to 0.5 McFarland standard, and the bacteria were dispensed in 96-well microtiter plates (final bacterial concentration: 1 × 10^4 CFU/well). Peptides were dissolved in sterile water (stock concentration: 2 mM) and added at final concentrations ranging from 0 to 50 µM. Plates were incubated at 37 °C for 16 h. At the end of incubation, bacterial growth was recorded using a microplate reader (Varioskan Lux Reader; Thermo Fisher Scientific, Milan, Italy) by quantifying the adsorption at 620 nm. Cultures were then opportunely diluted and seeded on agar plates. Bacterial cultures inoculated with the highest final concentration of the vehicle (sterile water) or chlorhexidine hydrochloride salt (CHX, concentration range: 0.05 to 500 μg/mL; Merck, Milan, Italy) were included as controls in each test. Experiments were performed in triplicate.

[4] = tested on: bip gene; test: qRT-PCR, bip gene expression; format: cell-based, Streptococcus mutans; conditions: CSP1 20 μM vs vehicle, 2–24 h, maximum at 8 h, qPCR
Description: (§5) S. mutans was cultured in BHI supplemented with peptides or the vehicle. Cultures were centrifuged, and total RNA was isolated and purified from the bacterial pellets using the GRS Total RNA Kit—Bacteria (GK16.0100; GRISP Research Solution, Porto, Portugal), following the manufacturer’s instructions. Purified RNA was subjected to DNase I treatment to remove contaminating DNA. The RNA yield and purity were assessed by measuring the absorbance, and only samples with a ratio of 260/280 nm in the 1.8–2 range were used. cDNA was generated using the cDNA RT kit with an RNAse inhibitor (Applied Biosystems; Monza, Milan). Quantitative PCR (qRT-PCR) was performed using SYBR green mixture (iScript One Step RT-PCR kit; Bio-Rad, Segrate, Milan) to determine the transcript levels of genes using the oligonucleotides listed in Table 3. The gyrA gene served as the housekeeping gene.

[5] = tested on: S. mutans bacteriocin production against P. gingivalis; test: Bacteriocin overlay assay, S. mutans spotted on P. gingivalis; format: cell-based, Streptococcus mutans; conditions: CSP1 20 μM, 16 h, anaerobic
Description: as §1, §2

[6] = tested on: S. mutans; test: Bacterial growth kinetics; format: cell-based, Streptococcus mutans
Description: Peptides were further evaluated for their potential effect in altering the growth kinetics in S. mutans. Overnight bacterial cultures were collected, centrifuged, and suspended in fresh BHI broth at 10^8 CFU/mL. Bacteria were dispensed in sterile 96-well microtiter plates at a final concentration of 1 × 10^6 CFU/100 µL and cultured with peptides or the vehicle at 37 °C for 36 h. Bacterial growth kinetics were monitored by measuring the optical density at 620 nm at different time points using Varioskan Lux Reader (Thermo Fisher Scientific).

[7] = tested on: S. mitis; test: microbe, parasite or virus in culture; format: cell-based, Streptococcus mitis; conditions: peptides 0–50 μM, 16 h, 37 °C, microaerophilic, A620 nm, three separate experiments
Description: as §3, §4

[8] = tested on: S. mutans bacteriocin production against S. sanguinis; test: Bacteriocin overlay assay, S. mutans spotted on S. sanguinis; format: cell-based, Streptococcus mutans; conditions: CSP1 20 μM alone vs vehicle, 16 h, 37 °C, microaerophilic
Description: (§6) During the formation of complex biofilm such as dental plaque, the ability of S. mutans to compete with other commensal species determines the success of the cariogenesis process. S. mutans uses antibacterial peptides, namely, bacteriocins, to overcome and subvert the composition of dental microbiota. We investigated the production of bacteriocins using the overlay assay. Overnight cultures of S. mitis, S. oralis, S. sanguinis, P. aeruginosa, F. nucleatum, or P. gingivalis were diluted 1:100 in BHI or TS broth and incubated at 37 °C until they reached an OD620 of 0.3. Cultures were added with agar (BD Difco^TM Agar) at the final concentration of 1.5% w/v and transferred in plates. Overnight cultures of S. mutans were diluted 1:100 in BHI and added with peptides (20 μM) or the vehicle with or without CSP1. Culture media were supplemented with agar to reach the final concentration of 0.7% w/v. The solutions were spotted on the surface of agar plates prepared as described above. The plates were kept on the benchtop for 30 min, allowing the agar containing S. mutans to solidify, and then incubated at 37 °C for 16 h under microaerophilic or anaerobic conditions, as required.
as §2

[9] = tested on: S. mutans bacteriocin production against S. mitis; test: Bacteriocin overlay assay, S. mutans spotted on S. mitis; format: cell-based, Streptococcus mutans; conditions: CSP1 20 μM alone vs vehicle, 16 h, 37 °C, microaerophilic
Description: as §6, §2

[10] = tested on: comC gene; test: qRT-PCR, comC gene expression; format: cell-based, Streptococcus mutans; conditions: CSP1 20 μM, 8 h, qPCR
Description: as §5

Question: For `CC[C@H](C)[C@H](NC(=O)[C@H](Cc1ccccc1)NC(=O)[C@H](CC(=O)O)NC(=O)[C@H](CCCNC(=N)N)NC(=O)[C@H](Cc1ccccc1)NC(=O)[C@H](Cc1ccccc1)NC(=O)[C@H](CCCCN)NC(=O)[C@H](CO)NC(=O)[C@H](CC(C)C)NC(=O)[C@H](CCCNC(=N)N)NC(=O)[C@H](CCSC)NC(=O)[C@@H](N)CCC(=O)O)C(=O)N[C@@H](CC(C)C)C(=O)N[C@@H](CCC(N)=O)C(=O)N[C@@H](CCCNC(=N)N)C(=O)N[C@@H](CCCCN)C(=O)N[C@@H](CCCCN)C(=O)O` [CSP1], which “Replication of P. aeruginosa in presence of S. mutans stimulated with peptide” value [1] is on record?
Answer: not affected

Question: What about the “Growth inhibition of F. nucleatum by S. mutans stimulated with peptide” value [2] of the same compound?
Answer: inhibited the growth

Question: What about the “Minimum inhibitory concentration (MIC), P. aeruginosa” value [3] of the same compound?
Answer: >50 µM

Question: And the “Expression of bip in S. mutans” value [4]?
Answer: induced the expression

Question: And the “Growth inhibition of P. gingivalis by S. mutans stimulated with peptide” value [5]?
Answer: no effects

Question: And the “Effect on the growth (growth kinetics) of S. mutans” value ([6]; 20 µM peptide, BHI broth, 37 °C, monitored 36 h, A620 nm, three experiments)?
Answer: no significant effects

Question: And the “Colony counting of S. mutans after incubation with the peptide” value ([6]; 20 µM, data not shown)?
Answer: not affected

Question: And the “Minimum inhibitory concentration (MIC), S. mitis” value [7]?
Answer: 25 µM (≈ 56.1 µg/mL)

Question: And the “Growth inhibition of co-cultured S. sanguinis by S. mutans stimulated with peptide (diameter of clear area)” value [8]?
Answer: significantly inhibited the growth

Question: And the “Growth inhibition of co-cultured S. mitis by S. mutans stimulated with peptide (diameter of clear area)” value [9]?
Answer: significantly inhibited the growth

Question: What about the “Expression of comC in S. mutans” value [10] of the same compound?
Answer: no effects
